Measurements published in ChEMBL document CHEMBL1129295, “Studies of cardiotonic agents. 8. Synthesis and biological activities of optically active 6-(4-(benzylamino)-7-quinazolinyl)-4,5-dihydro-5-methyl-3(2H)- pyridazinone (KF15232)” (J Med Chem, 1996).

Experiments:
[1] = Inhibition of bovine arterial Phosphodiesterase 4; set-up: species or system Bos taurus
Phosphodiesterase 3B = Phosphodiesterase 3B (Bos taurus, UniProt E1BN64); experiment: Inhibition of bovine arterial Phosphodiesterase 3
Chain of Phosphodiesterase 3B (E1BN64 whole entry): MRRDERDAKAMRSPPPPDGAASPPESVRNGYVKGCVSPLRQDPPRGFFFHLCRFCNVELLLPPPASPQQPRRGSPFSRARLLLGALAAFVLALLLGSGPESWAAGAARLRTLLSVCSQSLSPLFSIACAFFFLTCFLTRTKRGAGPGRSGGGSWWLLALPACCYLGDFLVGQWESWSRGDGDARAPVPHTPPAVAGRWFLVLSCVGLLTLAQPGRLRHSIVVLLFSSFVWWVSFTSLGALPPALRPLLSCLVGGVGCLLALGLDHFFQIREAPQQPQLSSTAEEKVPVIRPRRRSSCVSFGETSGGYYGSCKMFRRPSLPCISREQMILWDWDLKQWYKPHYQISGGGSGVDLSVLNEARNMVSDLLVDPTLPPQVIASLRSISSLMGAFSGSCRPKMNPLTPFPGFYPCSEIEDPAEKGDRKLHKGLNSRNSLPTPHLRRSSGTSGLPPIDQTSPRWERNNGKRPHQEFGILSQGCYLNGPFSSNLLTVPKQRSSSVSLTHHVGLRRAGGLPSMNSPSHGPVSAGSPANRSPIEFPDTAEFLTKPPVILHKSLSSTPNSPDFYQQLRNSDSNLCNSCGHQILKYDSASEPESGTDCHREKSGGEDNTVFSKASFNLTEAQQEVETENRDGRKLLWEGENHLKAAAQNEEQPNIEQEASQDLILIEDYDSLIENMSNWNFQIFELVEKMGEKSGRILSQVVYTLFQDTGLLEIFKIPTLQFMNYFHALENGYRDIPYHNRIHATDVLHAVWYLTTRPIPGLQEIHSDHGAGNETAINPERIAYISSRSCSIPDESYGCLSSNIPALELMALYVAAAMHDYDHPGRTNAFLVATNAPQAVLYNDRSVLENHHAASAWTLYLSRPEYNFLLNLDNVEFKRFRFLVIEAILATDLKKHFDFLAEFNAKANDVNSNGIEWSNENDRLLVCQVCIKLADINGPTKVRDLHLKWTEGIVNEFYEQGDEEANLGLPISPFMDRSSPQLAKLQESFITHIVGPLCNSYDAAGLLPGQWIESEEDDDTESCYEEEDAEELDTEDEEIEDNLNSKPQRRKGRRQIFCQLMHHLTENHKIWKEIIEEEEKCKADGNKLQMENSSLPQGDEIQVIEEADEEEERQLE

C[C@H]1CC(=O)NN=C1c1ccc2c(NCc3ccccc3)ncnc2c1
IC50 [1]: > 10000 nM

CC1CC(=O)NN=C1c1ccc2c(NCc3ccccc3)ncnc2c1 (racemic)
IC50 [1]: > 10000 nM

Nc1nc2c(ncn2[C@@H]2O[C@@H]3COP(=O)(O)O[C@H]3[C@H]2O)c(=O)[nH]1
IC50 (Phosphodiesterase 3B): 100 nM

Cc1[nH]c(=O)c(C#N)cc1-c1ccncc1 [MILRINONE]
IC50 [1]: 10000 nM
IC50 (Phosphodiesterase 3B): 1000 nM

COc1ccc(C2CNC(=O)C2)cc1OC1CCCC1 (configuration not stated) [ROLIPRAM]
IC50 [1]: 100 nM

C[C@@H]1CC(=O)NN=C1c1ccc2c(NCc3ccccc3)ncnc2c1
IC50 [1]: > 10000 nM
